The test system of assay [1] is HL60 cells. Description: Global protein synthesis, 3H-leucine incorporation. Type of assay: cell-based, Human. As to conditions: 15 μM Ec for 15 minutes. As to the method: FIG. 8 Effect of ABC50 knockdown or overexpression on global protein synthesis. Cells were incubated with 15 μM Ec for 15 minutes, pulse-labelled with 3H-leucine and incorporation was measured as described in Materials and Methods. A: Vector control vs ABC50 knock-down. B: Vector control vs ABC50 overexpression. The values are averages and standard errors from 4 replicates. This experiment was repeated six times. *p<0.05, **p<0.01 comparing knockdown or overexpressing cells to their vector control.
Cells (2×10^5/sample) were collected, washed with PBS and then re-suspended in RPMI supplemented with fatty acid-free bovine serum albumin (BSA; 0.05%; Sigma). Cells were treated with Ec (0, 15 μM) for 15 min. After centrifugation (2,500 rpm; 5 min), cells were pulse-labeled with [^3H]-leucine (50 μCi/ml) for 10 min (37° C.; 5% CO2) in leucine-free RPMI. After two washes in RPMI, pellets were lysed with Triton X-100 (0.5% in PBS) followed by trichloroacetic acid (TCA, 10% w/v; 4° C.). Samples were washed in TCA (5% w/v), and the protein pellets were re-suspended in microscintillant (Packard, Conn., USA) and measured using a microplate scintillation counter (Packard).

The subject of another assay is E2R2 cells. Description: Apoptosis induction by Ec, AnnexinV/PI flow cytometry, E2R2 cells. The assay is classed as cell-based, Human. As to conditions: 15 μM Ec for 2 hours, overnight recovery. As to the method: FIG. 2 ABC50 knockdown partially reverses resistance to Ec in E2R2 cells. A: Western blot of ABC50 expression in E2R2 cells infected with vector control or ABC50 shRNA. B: Apoptosis induction by Ec in E2R2 vector control and ABC50 knockdown cells. Cells were exposed to 15 μM Ec for 2 hours followed by overnight recovery as described in Materials and Methods. The following day, cells were stained with PI and AnnexinV and analysed by flow cytometry. AnnexinV positive, PI negative cells represent early apoptotic cells, AnnexinV positive, PI positive cells represent late apoptotic or necrotic cells.
(§1) To measure apoptosis induced by Econazole (Ec; Sigma-Aldrich, St. Louis, Mo.), cells were treated with Ec in RPMI containing 1% FBS for 2 hours at 37° C. then further incubated overnight in RPMI containing 10% FBS. Apoptosis induced by thapsigargin (Tg; Sigma-Aldrich) or Tunicamycin (Tu; Sigma-Aldrich) was determined after overnight incubation in RPMI containing 1% FBS. The cells were washed with PBS and stained with Annexin V-cy5 Apoptosis Detection kit (Biovision. Inc., Mountain View, Calif.)/PI and analysed by flow cytometry.

In assay [2] the test system is HL60 cells. Description: Apoptosis induction by ER stress agents and etoposide, AnnexinV/PI flow cytometry, HL60 cells. The assay is classed as cell-based, Human. As to conditions: 15 μM Ec 2 hours, 200 nM Tg, 1 μM Tu or 5 μM etoposide overnight; for sensitivity to apoptosis induction, ABC50 knockdown vs vector control: HL60 ABC50 knockdown cells; for sensitivity to apoptosis induction, ABC50 overexpressing vs control cells: HL60 ABC50 overexpressing cells. The procedure:
FIG. 3 ABC50 knockdown alters growth rate and sensitivity to Ec in HL60 cells. A: Western blot of ABC50 expression in HL60 cells infected with vector control or ABC50 shRNA. B: Cell growth kinetics of control and ABC50 knocked-down cells. Values are means and standard errors determined from triplicate cultures and is representative measurement from a series of three independent experiments. ***indicates p<0.001 at 48 hours for ABC50 KD cells vs control. C: Apoptosis induction by serum withdrawal (SW), Ec, Tg, Tu and etoposide (Eto) in HL60 vector control and ABC50 knockdown cells. Cells were exposed to 15 μM Ec for 2 hours followed by overnight recovery as described in Materials and Methods. Cells were incubated overnight in the absence of serum, 200 nM Tg, 1 μM Tu or 5 μM etoposide. The following day, cells were stained with PI and AnnexinV and analysed by flow cytometry. AnnexinV positive, PI negative cells represent early apoptotic cells, AnnexinV positive, PI positive cells represent late apoptotic or necrotic cells. Plotted is early and late apoptotic cells combined. *p<0.05, **p<0.01 comparing knockdown or overexpressing cells to their vector control.
FIG. 4 Effect of ABC50 overexpression on growth rate and sensitivity to ER stress agents in HL60 cells. A: Western blot of ABC50 expression in HL60 cells infected with vector control or ABC50 OE vector. B: Cell growth kinetics of control and ABC50 overexpressing cells. Values are means and standard errors determined from triplicate cultures and is representative measurement from a series of three independent experiments. C: Apoptosis induction by serum withdrawal (SW), Ec, Tg, Tu and etoposide (Eto) in HL60 vector control and ABC50 overexpressing cells. Cells were exposed to 15 μM Ec for 2 hours followed by overnight recovery as described in Materials and Methods. Cells were incubated overnight in the absence of serum, 200 nM Tg, 1 μM Tu or 5 μM etoposide. The following day, cells were stained with PI and AnnexinV and analysed by flow cytometry. AnnexinV positive, PI negative cells represent early apoptotic cells, AnnexinV positive, PI positive cells represent late apoptotic or necrotic cells. Plotted is early and late apoptotic cells combined. *p<0.05, **p<0.01 comparing knockdown or overexpressing cells to their vector control.
as §1

Assay [3] has as its system ser51-phosphorylated eIF2α. Description: ER stress response, Western blot of ser51-phosphorylated eIF2α. The assay is classed as cell-based, Human. As to conditions: Ec 15 μM, Tg 200 nM, 60 minutes; for induction of increased levels of phosphorylated eIF2α: ABC50 knockdown cells vs vector control; for levels of phosphorylated eIF2α: ABC50 overexpressing cells, Tu 200 ng/ml. The procedure: FIG. 6. ABC50 knockdown or overexpression alters the ER stress response. Vector controls, knockdown (A, B) or overexpressing cells (C, D) were exposed to Ec (15 μM), Tg (200 nM) or Tu (200 ng/ml) for 60 minutes. The cells were collected, lysed in RIPA buffer, resolved by SDS-PAGE and analysed with anti-sera specific for A, C: ser51-phosphorylated eIF2α or total eIF2α, B, D: BiP or actin. Numbers represent relative expression levels compared to control normalized to either total eIF2α or actin. The blots are representative of two independent experiments.
Cells were washed with PBS and lysed with Triple lysis buffer (50 mM Tris pH7.0, 150 mM NaCl, 0.1% SDS, 1% NP-40 and 0.5% DOC). Proteinase inhibitor (Boehringer) was added to 10 ml lysis buffer before use. Protein concentration was determined with the Pierce BCA kit. 20 μg of total protein was loaded onto 10% SDS-PAGE, transferred onto filters and blotted with rabbit anti-human ABC50 polyclonal serum (kind gift from Dr. C. Proud, Vancouver, Canada). eIF2α and its phosphorylated form (Ser51) were detected with rabbit polyclonal antibodies from Cell Signalling (Danvers, Mass.). Mouse anti-BiP/GRP78 antibodies were obtained from BD Biosciences (San Jose, Calif.) Anti-actin (pan Ab-5, Clone ACTN05) (Labvision/Neomarker, Fremont, Calif.) was used as a loading control.

A further assay has as its system sp2 cells. Briefly: Cell viability of Ec-selected sp2 cells, Trypan Blue staining. The assay is classed as cell-based, mouse. As to conditions: exposure overnight. The procedure: FIG. 10. Generation of Ec-resistant sp2 cells. Sp2 cells were exposed to increasing concentrations of Econazole. Cells remaining after treatment were expanded and subjected to additional rounds of selection. A: cell viability for unselected (U) and selected (S) cells. Exposure to Econazole was for 2 hours in low serum medium, followed by a recovery period of 24 hours in full growth medium. Cells were exposed to Thapsigargin (Tg) and Tunicamycin (Tu) overnight. Cell viability was determined by Trypan Blue staining of 200 cells. B: Western blot of ABC50 expression in sp2 cells selected for resistance to Ec showing increased expression. C: Quantitation of expression normalized to actin. **p<0.01, ***p<0.001 comparing selected vs unselected.

`Clc1ccc(COC(Cn2ccnc2)c2ccc(Cl)cc2Cl)cc1` (centres unmarked) [Ec, 1-[2-[(4-chlorophenyl)methoxy]-2-(2,4-dichlorophenyl)ethyl]-1H-imidazole]: the “protein synthesis rates after exposure” value in the assay with HL60 cells [1] (ABC50 knock down cells) is “reduced protein synthesis rates even further”. In addition, in the assay on HL60 cells [1] (ABC50 overexpressing cells), the “protein synthesis level after exposure, compared to control cells” value is on record as “significantly less reduced”. In addition, the “protein synthesis levels after exposure” value in the assay with HL60 cells [1] (vector control cells) is “significant decrease”. Further, the “combined early and late apoptosis” value in the assay with E2R2 cells (E2R2 ABC50 knockdown cells) came to 21.4%. Besides, the “combined early and late apoptosis” value in the assay with E2R2 cells (E2R2 vector control cells) is listed as 7.6%. Also, in the assay on HL60 cells [2], the “sensitivity to apoptosis induction, ABC50 knockdown vs vector control” value (from here on “sensitivity … vs vector control”) is “significantly increased the sensitivity” and the “sensitivity to apoptosis induction, ABC50 overexpressing vs control cells” value (“sensitivity … vs control cells” for short) was “decreased sensitivity”. In addition, in assay [3], the “induction of increased levels of phosphorylated eIF2α” value was “particularly effective” and the “levels of phosphorylated eIF2α” value is “reduced levels”.
On to `C/C=C(/C)C(=O)O[C@H]1C(C)=C2[C@H]([C@@H]1OC(=O)CCCCCCC)[C@@](C)(OC(C)=O)C[C@H](OC(=O)CCC)[C@@]1(O)[C@H]2OC(=O)[C@@]1(C)O` [Tg, thapsigargin], for which the “resistance of Ec-resistant sp2 cells (cell viability, selected vs unselected)” value with sp2 cells was “relatively resistant”. Also, in the assay on HL60 cells [2], the “sensitivity … vs vector control” value was “significantly increased the sensitivity” and the “sensitivity … vs control cells” value is on record as “decreased sensitivity”. In addition, in assay [3], the “induction of increased levels of phosphorylated eIF2α” value is recorded as “particularly effective” and the “levels of phosphorylated eIF2α” value is “reduced levels”.
Regarding `COc1cc([C@@H]2c3cc4c(cc3[C@@H](O[C@@H]3O[C@@H]5CO[C@@H](C)O[C@H]5[C@H](O)[C@H]3O)[C@H]3COC(=O)[C@H]23)OCO4)cc(OC)c1O` [etoposide], in the assay with HL60 cells [2], the “sensitivity … vs vector control” value was “did not affect sensitivity” and the “sensitivity … vs control cells” value is on record as “unchanged”.
For the compound Tunicamycin, in the assay on sp2 cells, the “resistance of Ec-resistant sp2 cells (cell viability, selected vs unselected)” value is listed as “relatively resistant”. For the same compound, in the assay on HL60 cells [2], the “sensitivity … vs vector control” value is on record as “significantly increased the sensitivity” and the “sensitivity … vs control cells” value is recorded as “decreased sensitivity”. In addition, in assay [3], the “levels of phosphorylated eIF2α” value is “reduced levels”.

These data come from patent US8691529B2, “Increasing protein production by increasing ABC50 expression or activity” (University Health Network, priority 2009, dated 2014).
